Activity calls are given as the source filed them. The calls are words filed in the database; no cut-off is given here.
What was measured:
A549 = test: Cytotoxicity against human A549 cells assessed as cell growth inhibition incubated for 48 hrs by MTT assay; format: functional, cell-based; conditions: A549, 48 h
HCT-116 = test: Cytotoxicity against human HCT-116 cells assessed as cell growth inhibition incubated for 48 hrs by MTT assay; format: functional, cell-based; conditions: HCT-116, 48 h
SK-MEL-28 [1] = test: Cytotoxicity against human SK-MEL-28 cells assessed as cell growth inhibition incubated for 48 hrs by MTT assay; format: functional, cell-based; conditions: SK-MEL-28, 48 h
HT-29 = test: Cytotoxicity against human HT-29 cells assessed as cell growth inhibition incubated for 48 hrs by MTT assay; format: functional, cell-based; conditions: HT-29, 48 h
MCF7 = test: Cytotoxicity against human MCF7 cells assessed as cell growth inhibition incubated for 48 hrs by MTT assay; format: functional, cell-based; conditions: MCF7, 48 h
[2] = Cytotoxicity against rat NRK cells assessed as cell growth inhibition incubated for 48 hrs by MTT assay; format: toxicity, cell-based
SK-MEL-28 [3] = test: Induction of apoptosis in human SK-MEL-28 cells assessed as nuclear fragmentation at 2.08 to 8.32 uM incubated for 48 hrs by DAPI staining based fluorescence microscopic analysis; format: functional, cell-based; conditions: dose 2.08-8.32 µM
SK-MEL-28 [4] = test: Induction of apoptosis in human SK-MEL-28 cells assessed as changes in nuclear morphology at 2.08 to 8.32 uM incubated for 48 hrs by DAPI staining based fluorescence microscopic analysis; format: functional, cell-based; conditions: dose 2.08-8.32 µM
SK-MEL-28 [5] = test: Induction of apoptosis in human SK-MEL-28 cells assessed as changes in cell morphology at 2.08 to 8.32 uM incubated for 48 hrs by phase contrast microscopy; format: functional, cell-based; conditions: dose 2.08-8.32 µM
SK-MEL-28 [6] = test: Induction of apoptosis in human SK-MEL-28 cells assessed as cell shrinkage at 2.08 to 8.32 uM incubated for 48 hrs by phase contrast microscopy; format: functional, cell-based; conditions: dose 2.08-8.32 µM, DDE = dose-dependent effect
SK-MEL-28 [7] = test: Induction of apoptosis in human SK-MEL-28 cells assessed as cell membrane disruption at 2.08 to 8.32 uM incubated for 48 hrs by phase contrast microscopy; format: functional, cell-based; conditions: dose 2.08-8.32 µM, DDE = dose-dependent effect
SK-MEL-28 [8] = test: Induction of apoptosis in human SK-MEL-28 cells assessed as reduction on viable cells at 2.08 to 8.32 uM incubated for 48 hrs by phase contrast microscopy; format: functional, cell-based; conditions: dose 2.08-8.32 µM, DDE = dose-dependent effect
SK-MEL-28 [9] = test: Induction of apoptosis in human SK-MEL-28 cells assessed as chromatin condensation at 2.08 to 8.32 uM incubated for 48 hrs by DAPI staining based fluorescence microscopic analysis; format: functional, cell-based; conditions: dose 2.08-8.32 µM
SK-MEL-28 [10] = test: Induction of apoptosis in human SK-MEL-28 cells assessed as cell shrinkage at 2.08 to 8.32 uM incubated for 48 hrs by AO/EB staining based fluorescence microscopy; format: functional; conditions: dose 2.08-8.32 µM, DDE = dose-dependent effect
SK-MEL-28 [11] = test: Induction of apoptosis in human SK-MEL-28 cells assessed as apoptotic body fragmentation at 2.08 to 8.32 uM incubated for 48 hrs by AO/EB staining based fluorescence microscopy; format: functional, cell-based; conditions: dose 2.08-8.32 µM, DDE = dose-dependent effect
SK-MEL-28 [12] = test: Induction of apoptosis in human SK-MEL-28 cells assessed as membrane blebbing at 2.08 to 8.32 uM incubated for 48 hrs by AO/EB staining based fluorescence microscopy; format: functional, cell-based; conditions: dose 2.08-8.32 µM, DDE = dose-dependent effect
SK-MEL-28 [13] = test: Induction of apoptosis in human SK-MEL-28 cells assessed as chromatin condensation at 2.08 to 8.32 uM incubated for 48 hrs by AO/EB staining based fluorescence microscopy; format: functional, cell-based; conditions: dose 2.08-8.32 µM, DDE = dose-dependent effect
SK-MEL-28 [14] = test: Induction of intracellular ROS generation in human SK-MEL-28 cells at 2.08 to 8.32 uM incubated for 48 hrs by […] fluorescence microscopic analysis; format: functional, cell-based; conditions: dose 2.08-8.32 µM, DDE = dose-dependent effect
SK-MEL-28 [15] = test: Anti-migration activity in human SK-MEL-28 cells assessed as distance travelled at 2.08 uM by wound healing assay based phase contrast microscopy; format: functional
SK-MEL-28 [16] = test: Anti-migration activity in human SK-MEL-28 cells assessed as distance travelled at 4.16 uM by wound healing assay based phase contrast microscopy; format: functional
SK-MEL-28 [17] = test: Anti-migration activity in human SK-MEL-28 cells assessed as distance travelled at 8.32 uM by wound healing assay based phase contrast microscopy; format: functional
SK-MEL-28 [18] = test: Anti-migration activity in human SK-MEL-28 cells assessed as distance travelled at 2.08 uM incubated for 48 hrs by wound healing assay based phase contrast microscopy; format: functional
SK-MEL-28 [19] = test: Anti-migration activity in human SK-MEL-28 cells assessed as distance travelled at 4.16 uM incubated for 48 hrs by wound healing assay based phase contrast microscopy; format: functional
SK-MEL-28 [20] = test: Anti-migration activity in human SK-MEL-28 cells assessed as distance travelled at 8.32 uM incubated for 48 hrs by wound healing assay based phase contrast microscopy; format: functional
SK-MEL-28 [21] = test: Inhibition of cell migration in human SK-MEL-28 cells at 2.08 to 8.32 uM incubated for 48 hrs by wound healing assay based phase contrast microscopy; format: functional; conditions: dose 2.08-8.32 µM, DDE = dose-dependent effect
SK-MEL-28 [22] = test: Inhibition of colony formation in human SK-MEL-28 cells assessed as decrease in colonies at 2.08 to 8.32 uM incubated for 7 days by crystal violet staining based assay; format: functional, cell-based; conditions: dose 2.08-8.32 µM, time 7.0 day, DDE = dose-dependent effect
SK-MEL-28 [23] = test: Induction of apoptosis in human SK-MEL-28 cells assessed as necrotic cells at 2.08 to 8.32 uM incubated for 48 hrs by Annexin V-FITC/propidium iodide staining based flow cytometric analysis; format: functional; conditions: dose 2.08-8.32 µM
SK-MEL-28 [24] = test: Induction of apoptosis in human SK-MEL-28 cells assessed as late apoptotic cells measured upto 4.16 uM incubated for 48 hrs by Annexin V-FITC/propidium iodide staining based flow cytometric analysis; format: functional, cell-based
Calf thymus DNA [25] = test: Binding affinity to calf thymus DNA assessed as hyperchromicity at 10 to 20 uM by UV-Vis spectroscopic analysis; format: nucleic-acid assay; conditions: Bos taurus; dose 10-20 µM
Calf thymus DNA [26] = test: Binding affinity to calf thymus DNA assessed as hyperchromicity at 10 uM by circular dichroism spectroscopy; format: nucleic-acid assay; conditions: Bos taurus
Calf thymus DNA [27] = test: Binding affinity to calf thymus DNA assessed as decrease in viscosity at 15 uM by ethidium bromide-Hoechst 33342 staining based analysis; format: nucleic-acid assay; conditions: Bos taurus
[28] = target: T1, DNA topoisomerase 1 (Homo sapiens) (UniProt P11387); test: Inhibition of DNA topoisomerase 1 (unknown origin) assessed as reduction in pBR322 DNA relaxation at 10 uM incubated for 30 mins measured by agarose gel electrophoresis method relative to control
T1 sequence (whole entry): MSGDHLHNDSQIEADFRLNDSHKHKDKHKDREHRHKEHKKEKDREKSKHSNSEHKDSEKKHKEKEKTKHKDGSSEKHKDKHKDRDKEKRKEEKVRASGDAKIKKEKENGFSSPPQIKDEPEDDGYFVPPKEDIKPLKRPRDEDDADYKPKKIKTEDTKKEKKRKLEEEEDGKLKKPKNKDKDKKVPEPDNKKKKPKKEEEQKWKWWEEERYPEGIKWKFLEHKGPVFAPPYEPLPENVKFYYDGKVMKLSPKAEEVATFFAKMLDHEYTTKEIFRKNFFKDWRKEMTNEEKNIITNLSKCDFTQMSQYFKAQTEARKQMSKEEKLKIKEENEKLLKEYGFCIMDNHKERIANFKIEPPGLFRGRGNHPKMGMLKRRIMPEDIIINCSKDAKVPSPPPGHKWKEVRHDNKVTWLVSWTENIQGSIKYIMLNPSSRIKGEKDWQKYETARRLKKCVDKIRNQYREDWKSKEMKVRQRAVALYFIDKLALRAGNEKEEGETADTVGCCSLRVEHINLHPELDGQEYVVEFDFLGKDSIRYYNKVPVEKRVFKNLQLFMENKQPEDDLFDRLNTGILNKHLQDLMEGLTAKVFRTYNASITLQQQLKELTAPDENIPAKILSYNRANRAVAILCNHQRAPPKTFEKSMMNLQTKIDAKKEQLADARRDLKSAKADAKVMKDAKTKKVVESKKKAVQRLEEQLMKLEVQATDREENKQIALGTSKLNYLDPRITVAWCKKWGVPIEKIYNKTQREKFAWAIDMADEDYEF

DNA topoisomerase 1 = target: T2, DNA topoisomerase 1 (Homo sapiens, UniProt P11387); test: Inhibition of human DNA topoisomerase 1 assessed as reduction in pBR322 DNA relaxation incubated for 1 hrs measured by agarose gel electrophoresis method
T2 sequence (P11387 whole entry): T1 sequence (whole entry)

[29] = target: DNA topoisomerase 2-alpha (Homo sapiens) (UniProt P11388); test: Inhibition of DNA topoisomerase 2 (unknown origin) assessed as reduction in decatenation using kDNA as substrate incubated for 30 mins measured by agarose gel electrophoresis method
DNA topoisomerase 2-alpha (Homo sapiens), sequence (P11388 whole entry): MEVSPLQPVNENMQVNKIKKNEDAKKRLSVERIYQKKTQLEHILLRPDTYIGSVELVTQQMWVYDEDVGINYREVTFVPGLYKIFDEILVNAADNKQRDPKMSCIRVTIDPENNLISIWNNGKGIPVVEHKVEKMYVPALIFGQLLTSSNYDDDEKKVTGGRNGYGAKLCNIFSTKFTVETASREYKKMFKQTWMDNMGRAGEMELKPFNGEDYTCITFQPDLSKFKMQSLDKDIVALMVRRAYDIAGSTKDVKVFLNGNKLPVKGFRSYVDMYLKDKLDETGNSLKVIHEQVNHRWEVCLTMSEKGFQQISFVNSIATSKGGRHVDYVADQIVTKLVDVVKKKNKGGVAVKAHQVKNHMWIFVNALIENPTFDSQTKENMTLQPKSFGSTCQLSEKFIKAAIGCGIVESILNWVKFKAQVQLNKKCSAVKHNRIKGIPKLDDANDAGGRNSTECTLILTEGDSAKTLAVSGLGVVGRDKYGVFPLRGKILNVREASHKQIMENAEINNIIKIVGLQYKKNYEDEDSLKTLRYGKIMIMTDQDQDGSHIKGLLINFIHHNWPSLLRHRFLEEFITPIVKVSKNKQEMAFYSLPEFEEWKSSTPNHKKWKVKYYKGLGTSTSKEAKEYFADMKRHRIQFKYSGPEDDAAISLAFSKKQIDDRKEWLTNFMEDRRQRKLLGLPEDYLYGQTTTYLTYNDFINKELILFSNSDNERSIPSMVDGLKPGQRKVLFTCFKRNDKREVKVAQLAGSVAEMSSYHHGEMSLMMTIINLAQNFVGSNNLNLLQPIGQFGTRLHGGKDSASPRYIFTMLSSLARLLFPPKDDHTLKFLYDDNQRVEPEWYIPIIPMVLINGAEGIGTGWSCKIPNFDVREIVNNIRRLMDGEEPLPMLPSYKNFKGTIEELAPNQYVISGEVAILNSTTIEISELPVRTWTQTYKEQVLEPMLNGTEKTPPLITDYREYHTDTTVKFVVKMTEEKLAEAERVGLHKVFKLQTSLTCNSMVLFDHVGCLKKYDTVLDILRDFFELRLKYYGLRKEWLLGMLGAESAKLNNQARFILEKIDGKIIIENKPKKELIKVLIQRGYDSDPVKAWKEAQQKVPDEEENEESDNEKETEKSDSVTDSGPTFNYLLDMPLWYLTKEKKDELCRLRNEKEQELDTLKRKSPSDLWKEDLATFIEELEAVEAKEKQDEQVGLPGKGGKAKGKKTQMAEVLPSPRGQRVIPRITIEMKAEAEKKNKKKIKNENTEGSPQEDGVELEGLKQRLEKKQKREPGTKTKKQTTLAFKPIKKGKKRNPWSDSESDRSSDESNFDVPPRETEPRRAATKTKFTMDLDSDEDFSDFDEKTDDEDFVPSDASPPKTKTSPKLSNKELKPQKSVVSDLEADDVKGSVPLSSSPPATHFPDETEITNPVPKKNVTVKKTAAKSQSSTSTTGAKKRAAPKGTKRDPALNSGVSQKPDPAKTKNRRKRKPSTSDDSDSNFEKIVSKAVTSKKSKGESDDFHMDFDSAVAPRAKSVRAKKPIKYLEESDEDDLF

Cc1ccc(C/N=C2\NC(=O)/C(=C3\CCNC(=O)c4[nH]ccc43)S2)cc1
IC50 (A549): 9.08 µM
IC50 (HCT-116): 4.76 µM
IC50 (SK-MEL-28 [1]): 4.15 µM
IC50 (HT-29): 6.83 µM
IC50 (MCF7): 8.15 µM
IC50 at 48 h [2]: 41.9 µM
Activity (SK-MEL-28 [3]): Active
Activity (SK-MEL-28 [4]): Active
Activity (SK-MEL-28 [5]): Active
Activity (SK-MEL-28 [6]): Dde
Activity (SK-MEL-28 [7]): Dde
Activity (SK-MEL-28 [8]): Dde
Activity (SK-MEL-28 [9]): Active
Activity (SK-MEL-28 [10]): Dde
Activity (SK-MEL-28 [11]): Dde
Activity (SK-MEL-28 [12]): Dde
Activity (SK-MEL-28 [13]): Dde
Activity (SK-MEL-28 [14]): Dde
Activity (SK-MEL-28 [15]): 670 um
Activity (SK-MEL-28 [16]): 736.33 um
Activity (SK-MEL-28 [17]): 798.09 um
Activity (SK-MEL-28 [18]): 434.44 um
Activity (SK-MEL-28 [19]): 568.42 um
Activity (SK-MEL-28 [20]): 573.08 um
inhibition (SK-MEL-28 [21]): Dde
inhibition (SK-MEL-28 [22]): Dde
Activity (SK-MEL-28 [23]): 4.84%
Activity (SK-MEL-28 [24]): Active
Activity (Calf thymus DNA [25]): Active
Activity (Calf thymus DNA [26]): Active
Activity (Calf thymus DNA [27]): Active
inhibition [28]: 17%
IC50 (DNA topoisomerase 1): 34 µM
inhibition [29]: Active

— ChEMBL document CHEMBL5137032, “Design, synthesis of DNA-interactive 4-thiazolidinone-based indolo-/pyrroloazepinone conjugates as potential cytotoxic and topoisomerase I inhibitors” (Eur J Med Chem, 2022)
